Assay results taken from patent US20240158446A1, “CYCLIC COMPOUND HAVING SELECTIVE INHIBITORY ACTION ON KRAS OVER HRAS AND NRAS” (CHUGAI SEIYAKU KABUSHIKI KAISHA, priority 2021, published 2024).
pKd: −log10 of the molar value.

Columns and labels:
[1] = tested on: human lung cancer strain NCI-H441; experiment: cells; details: NCI-H441, 96 h, read-out: NCI-H441 IC50 (nM), NCI-H441 cell proliferation, 4 days, CellTiter-Glo;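 further: cell proliferation inhibition after four days measured by CellTiter-Glo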
[2] = target: GDP-bound KRAS wild-type protein (Homo sapiens, UniProt P01116); experiment: Binding to KRAS by surface plasmon resonance (SPR), Single Cycle Kinetics; details: SPR, Single Cycle Kinetics, GDP-bound KRAS wild-type protein; read-out: KRAS KD
Sequence of GDP-bound KRAS wild-type protein (P01116 whole entry): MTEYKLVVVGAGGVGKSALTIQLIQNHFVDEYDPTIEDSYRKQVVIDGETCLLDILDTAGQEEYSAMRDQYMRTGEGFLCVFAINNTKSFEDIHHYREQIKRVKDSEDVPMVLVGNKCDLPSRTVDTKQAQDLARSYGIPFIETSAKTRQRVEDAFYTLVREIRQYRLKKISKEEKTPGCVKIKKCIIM

[3] = target: GDP-bound HRAS wild-type protein (Homo sapiens, UniProt P01112); experiment: Binding to HRAS by surface plasmon resonance (SPR), Single Cycle Kinetics; details: ratio of KD for GDP-bound HRAS wild-type protein to KD for KRAS, SPR
Sequence of GDP-bound HRAS wild-type protein (P01112 whole entry): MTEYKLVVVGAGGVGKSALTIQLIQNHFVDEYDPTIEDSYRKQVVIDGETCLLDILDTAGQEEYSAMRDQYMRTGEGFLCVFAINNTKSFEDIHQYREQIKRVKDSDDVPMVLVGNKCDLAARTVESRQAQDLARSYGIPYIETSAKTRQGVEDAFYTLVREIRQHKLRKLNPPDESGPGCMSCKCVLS

[4] = target: GDP-bound NRAS wild-type protein (Homo sapiens, UniProt P01111); experiment: Binding to NRAS by surface plasmon resonance (SPR), Single Cycle Kinetics; details: ratio of KD for GDP-bound NRAS wild-type protein to KD for KRAS, SPR
Sequence of GDP-bound NRAS wild-type protein (P01111 whole entry): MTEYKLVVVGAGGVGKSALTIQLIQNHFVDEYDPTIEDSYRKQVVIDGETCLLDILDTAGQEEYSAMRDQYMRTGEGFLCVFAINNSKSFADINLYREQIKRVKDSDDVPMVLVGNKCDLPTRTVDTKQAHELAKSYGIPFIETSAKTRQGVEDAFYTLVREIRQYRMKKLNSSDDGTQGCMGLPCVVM

Row | IC50 [1] | pKd [2] | Compound | HRAS/KRAS (KD ratio) [3] | NRAS/KRAS (KD ratio) [4]
1 | 7.1 nM | 9.51 | CCCN(C)C(=O)[C@@H]1CC(=O)N(C)[C@@H](CC(F)F)C(=O)N[C@@H]([C@@H](C)CC)C(=O)N(C)CC(=O)N(C)[C@H]2C/C=C\CCN(C2=O)[C@@H](Cc2ccc(C(F)(F)F)cc2)C(=O)N(C)CC(=O)N[C@@H](CCc2cc(F)c(Cl)c(F)c2)C(=O)N2C[C@H](OCC)C[C@H]2C(=O)NC2(CC(C)(C)C2)C(=O)N(C)[C@@H](C2CCCC2)C(=O)N1C [PP1757] | A (a compound having 10 or more and less than 20 is denoted as A) | AA (a compound having 20 or more is denoted as AA)
2 | 6 nM | 9.72 | CCC[C@H]1C(=O)N[C@@H]([C@@H](C)CC)C(=O)N(C)CC(=O)N(C)[C@H]2C/C=C\CCN(C2=O)[C@@H](Cc2ccc(C(F)(F)F)cc2)C(=O)N(C)CC(=O)N[C@@H](CCc2cc(F)c(Cl)c(F)c2)C(=O)N2C[C@H](OCC)C[C@H]2C(=O)NC2(CC(C)(C)C2)C(=O)N(C)[C@@H](C2CCCC2)C(=O)N(C)[C@H](C(=O)N(C)C)CC(=O)N1C [PP1758] | A (a compound having 10 or more and less than 20 is denoted as A) | AA (a compound having 20 or more is denoted as AA)
3 | 6.2 nM | 9.82 | CCO[C@@H]1C[C@H]2C(=O)NC3(CC(C)(C)C3)C(=O)N(C)[C@@H](C3CCCC3)C(=O)N(C)[C@H](C(=O)N(C)C)CC(=O)N(C)[C@@H](CC3CC3)C(=O)N[C@@H]([C@@H](C)CC)C(=O)N(C)CC(=O)N(C)[C@H]3C/C=C\CCN(C3=O)[C@@H](Cc3ccc(C(F)(F)F)cc3)C(=O)N(C)CC(=O)N[C@@H](CCc3cc(F)c(Cl)c(F)c3)C(=O)N2C1 [PP1759] | A (a compound having 10 or more and less than 20 is denoted as A) | A (a compound having 10 or more and less than 20 is denoted as A)
4 | 5.2 nM | 9.77 | CCO[C@@H]1C[C@H]2C(=O)NC3(CC(C)(C)C3)C(=O)N(C)[C@@H](C3CCCC3)C(=O)N(C)[C@H](C(=O)N(C)C)CC(=O)N(C)[C@@H](CC(C)C)C(=O)N[C@@H]([C@@H](C)CC)C(=O)N(C)CC(=O)N(C)[C@H]3C/C=C\CCN(C3=O)[C@@H](Cc3ccc(C(F)(F)F)cc3)C(=O)N(C)CC(=O)N[C@@H](CCc3cc(F)c(Cl)c(F)c3)C(=O)N2C1 [PP1761] | A (a compound having 10 or more and less than 20 is denoted as A) | A (a compound having 10 or more and less than 20 is denoted as A)
5 | 8.4 nM | 9.59 | CCO[C@@H]1C[C@H]2C(=O)NC3(CC(C)(C)C3)C(=O)N(C)[C@@H](C3CCCC3)C(=O)N(C)[C@H](C(=O)N(C)C)CC(=O)N(C)[C@@H](CC3CCC3)C(=O)N[C@@H]([C@@H](C)CC)C(=O)N(C)CC(=O)N(C)[C@H]3C/C=C\CCN(C3=O)[C@@H](Cc3ccc(C(F)(F)F)cc3)C(=O)N(C)CC(=O)N[C@@H](CCc3cc(F)c(Cl)c(F)c3)C(=O)N2C1 [PP1762] | A (a compound having 10 or more and less than 20 is denoted as A) | A (a compound having 10 or more and less than 20 is denoted as A)
6 | 13.3 nM | 9.64 | CCCN(C)C(=O)[C@@H]1CC(=O)N(C)[C@@H](COC)C(=O)N[C@@H]([C@@H](C)CC)C(=O)N(C)CC(=O)N(C)[C@H]2C/C=C\CCN(C2=O)[C@@H](Cc2ccc(C(F)(F)F)cc2)C(=O)N(C)CC(=O)N[C@@H](CCc2cc(F)c(Cl)c(F)c2)C(=O)N2C[C@H](OCC)C[C@H]2C(=O)NC2(CC(C)(C)C2)C(=O)N(C)[C@@H](C2CCCC2)C(=O)N1C [PP1763] | A (a compound having 10 or more and less than 20 is denoted as A) | A (a compound having 10 or more and less than 20 is denoted as A)
7 | 11.1 nM | 9.96 | CCCOC[C@H]1C(=O)N[C@@H]([C@@H](C)CC)C(=O)N(C)CC(=O)N(C)[C@H]2C/C=C\CCN(C2=O)[C@@H](Cc2ccc(C(F)(F)F)cc2)C(=O)N(C)CC(=O)N[C@@H](CCc2cc(F)c(Cl)c(F)c2)C(=O)N2C[C@H](OCC)C[C@H]2C(=O)NC2(CC(C)(C)C2)C(=O)N(C)[C@@H](C2CCCC2)C(=O)N(C)[C@H](C(=O)N(C)C)CC(=O)N1C [PP1764] | A (a compound having 10 or more and less than 20 is denoted as A) | AA (a compound having 20 or more is denoted as AA)
8 | 16.8 nM | 10.08 | CCO[C@@H]1C[C@H]2C(=O)NC3(CCC3)C(=O)N(C)[C@@H](C3CCCC3)C(=O)N(C)[C@H](C(=O)N(C)C)CC(=O)N(CC)[C@@H](CC(C)C)C(=O)N[C@@H]([C@@H](C)CC)C(=O)N(C)CC(=O)N(C)[C@H]3C/C=C\CCN(C3=O)[C@@H](Cc3ccc(C(F)(F)F)cc3)C(=O)N(C)CC(=O)N[C@@H](CCc3cc(F)c(C(F)(F)F)c(F)c3)C(=O)N2C1 [PP1765] | A (a compound having 10 or more and less than 20 is denoted as A) | A (a compound having 10 or more and less than 20 is denoted as A)
9 | 17.9 nM | 9.47 | CCC[C@H]1C(=O)N[C@@H]([C@@H](C)CC)C(=O)N(CCC)CC(=O)N(C)[C@H]2C/C=C\CCN(C2=O)[C@@H](Cc2ccc(C(F)(F)F)cc2)C(=O)N(C)CC(=O)N[C@@H](CCc2cc(F)c(C(F)(F)F)c(F)c2)C(=O)N2C[C@H](OCC)C[C@H]2C(=O)NC2(CCC2)C(=O)N(C)[C@@H](C2CCCC2)C(=O)N(C)[C@H](C(=O)N(C)C)CC(=O)N1C [PP1767] | B (a compound having 3 or more and less than 10 is denoted as B) | A (a compound having 10 or more and less than 20 is denoted as A)
10 | 4.9 nM | 9.49 | CCO[C@@H]1C[C@H]2C(=O)NC3(CC(C)(C)C3)C(=O)N(C)[C@@H](C3CCCC3)C(=O)N(CC)[C@H](C(=O)N(C)C)CC(=O)N(C)[C@@H](CC)C(=O)N[C@@H]([C@@H](C)CC)C(=O)N(C)CC(=O)N(C)[C@H]3C/C=C\CCN(C3=O)[C@@H](Cc3ccc(C(F)(F)F)cc3)C(=O)N(C)CC(=O)N[C@@H](CCc3cc(F)c(C(F)(F)F)c(F)c3)C(=O)N2C1 [PP1768] | A (a compound having 10 or more and less than 20 is denoted as A) | A (a compound having 10 or more and less than 20 is denoted as A)
11 | 12.9 nM | 9.11 | CCC[C@H]1C(=O)N[C@@H]([C@@H](C)CC)C(=O)N(C)CC(=O)N(C)[C@H]2C/C=C\CCN(C2=O)[C@@H](Cc2ccc(C(F)(F)F)cc2)C(=O)N(C)CC(=O)N[C@@H](CCc2cc(F)c(C(F)(F)F)c(F)c2)C(=O)N2C[C@H](OCC)C[C@H]2C(=O)NC2(CCC2)C(=O)N(C)[C@@H](C2CCCC2)C(=O)N(CCC)[C@H](C(=O)N(C)C)CC(=O)N1C [PP1769] | A (a compound having 10 or more and less than 20 is denoted as A) | A (a compound having 10 or more and less than 20 is denoted as A)
12 | 6.6 nM | 10.01 | CCO[C@@H]1C[C@H]2C(=O)NC3(CC(C)(C)C3)C(=O)N(C)[C@@H](C3CCCC3)C(=O)N(C)[C@H](C(=O)N(C)CC)CC(=O)N(C)[C@@H](CC(C)C)C(=O)N[C@@H]([C@@H](C)CC)C(=O)NCC(=O)N(C)[C@H]3C/C=C\CCN(C3=O)[C@@H](Cc3ccc(C(F)(F)F)cc3)C(=O)N(C)CC(=O)N[C@@H](CCc3cc(F)c(C(F)(F)F)c(F)c3)C(=O)N2C1 [PP1771] | A (a compound having 10 or more and less than 20 is denoted as A) | A (a compound having 10 or more and less than 20 is denoted as A)
13 | 13.4 nM | 9.64 | CCO[C@@H]1C[C@H]2C(=O)NC3(CC(C)(C)C3)C(=O)N(C)[C@@H](C3CCCC3)C(=O)N(C)[C@H](C(=O)N(C)C)CC(=O)N(CC)[C@@H](CC(C)C)C(=O)N[C@@H]([C@@H](C)CC)C(=O)NCC(=O)N(C)[C@H]3C/C=C\CCN(C3=O)[C@@H](Cc3ccc(C(F)(F)F)cc3)C(=O)N(C)CC(=O)N[C@@H](CCc3cc(F)c(C(F)(F)F)c(F)c3)C(=O)N2C1 [PP1772] | B (a compound having 3 or more and less than 10 is denoted as B) | B (a compound having 3 or more and less than 10 is denoted as B)
14 | 39.9 nM | 9.28 | CCO[C@@H]1C[C@H]2C(=O)NC3(CC(C)(C)C3)C(=O)N(C)[C@@H](C3CCCC3)C(=O)N(CC)[C@H](C(=O)N(C)C)CC(=O)N(C)[C@@H](CC(C)C)C(=O)N[C@@H]([C@@H](C)CC)C(=O)NCC(=O)N(C)[C@H]3C/C=C\CCN(C3=O)[C@@H](Cc3ccc(C(F)(F)F)cc3)C(=O)N(C)CC(=O)N[C@@H](CCc3cc(F)c(C(F)(F)F)c(F)c3)C(=O)N2C1 [PP1773] | A (a compound having 10 or more and less than 20 is denoted as A) | A (a compound having 10 or more and less than 20 is denoted as A)
15 | 98.7 nM | 9.27 | CC[C@H](C)[C@@H]1NC(=O)[C@H](CC(C)C)N(C)C(=O)C[C@@H](C(=O)N(C)C)N(C)C(=O)[C@H](C2CCCC2)N(C)C(=O)C2(CC(C)(C)C2)NC(=O)CN(C)C(=O)[C@H](CCc2cc(F)c(C(F)(F)F)c(F)c2)NC(=O)CN(C)C(=O)[C@H](Cc2ccc(C(F)(F)F)cc2)N2CC/C=C\C[C@@H](C2=O)N(C)C(=O)CN(C)C1=O [PP1776] | A (a compound having 10 or more and less than 20 is denoted as A) | A (a compound having 10 or more and less than 20 is denoted as A)
